# Results published in patent US4822408A, “Alkyl-, alkenyl- and alkynylnitroguanidines as cytokinin plant growth regulants” (American Cyanamid Company, priority 1987, dated 1989).
# Values joined by “and” are separate entries in the source; they are usually repeats but may differ in a detail not shown here. Equal entries are not always repeated. Where two headings read alike, the source gives them in different places.
# How the values were obtained:
# cucumber cotyledon = assay: tissue or blood; type: cell-based, Cucumis sativa var. National Pickling; details: 0.06-64 ppm typically tested, inactive if more than 200 ppm; for EC50: Cucumis sativus, read-out: ED50 (the source's name)
# Soybean callus = Soybean callus culture bioassay (definitive cytokinin activity); type: cell-based, Glycine max CV. Acme; details: for Callus Dry Weight / Callus Fresh Weight: 6 weeks, 3 flasks per treatment; for Callus Dry Weight: no supplement 22.2 ± 9; for Callus Fresh Weight: initial fresh weight 240 mg, no supplement 283 ± 99
# Method: Soybean callus cultures (from Glycine max CV. Acme) are subdivided into smaller callus pieces each weighing about 80 mg each. These pieces are placed on 50 ml of agar containing nutrient medium from which the usual growth supporting cytokinin hormone has been deleted. Without cytokinin hormone, the callus tissue will not divide and grow. Any compound which can provide for growth of the callus under these circumstances is by definition a cytokinin. The test is thus definitive and diagnostic. Different flasks of the nutrient medium are therefore supplemented with either the known cytokinin N^6 -benzyladenine as a standard or with the indicated test compound. After 6 weeks of axenic culture, the callus pieces are weighed, then oven dried and weighed again, such that the amount of callus growth is determined as a function of increased tissue weight.
# cucumber cotyledons = assay: Antagonism of cytokinin activity by a cytokinin antagonist in the cucumber cotyledon bioassay; type: cell-based, Cucumis sativa var. National Pickling
# Method: Cucumber seeds (Cucumis sativa var. National Pickling) are germinated in vermiculite in the dark at 30° C. for 6 days. The cotyledons are subsequently excised under a dim green safelight and placed abaxial side up in […] petri dishes at 8 pairs of cotyledons per dish. The dishes also contain three layers of Whatman No. 1 filter paper and 10 mls of test solution. The dishes with cotyledons are returned to the dark at 30° C. for about 18 hours. Thereafter the dishes are placed under fluorescent light at about 12 μw per square cm for 3 hours at 25° C. The cotyledons are then blotted and placed in 5 ml of dimethylformamide overnight and at 4° C. to extract the chlorophyll. The leachate is then analyzed for absorbance at 663 nanometers by spectrophotometry (Moran and Porath Plant Physical (1980) 65: 478-9) to determine relative chlorophyll biosynthesis. The cotyledons are then measured for area by using a sensitive leaf area meter. These two parameters, chlorophyll synthesis and enhanced expansion of the cotyledons are used as a measure of relative cytokinin activity. The test solutions typically contain between 0.06 and 64 ppm of test compound, up to 1.3% acetone, and 40 mM KCl. The amount of compound is varied in order to determine the dose at which there is achieved a response which is 50% of the maximum possible enhancement, as judged by a standard. This is termed the 50% effective dose or ED50 (Table).
# The above compound is a known (Hecht et al.) Biochemistry 10:4224 (1971) antagonist of the activity of cytokinins such as the natural cytokinin 6-(3-methyl-2-butenylamino)purine (2iP). For example 0.003 μM 2iP is required for maximum growth of tobacco callus tissue cultures. The antagonist decreases this effect in the range of 0.1 μM (detectable) to 0.73 μM (lethal). (Ref. Skoog et al. Phytochemistry 12: 25-37 (1973)).
# Test solutions are prepared to contain a test compound in both the presence and absence of the antagonist.
# [1] = tested on: tobacco callus tissue cultures; details: cited from earlier work
# [2] = tested on: habituated callus tissue (Nicotiana tabacum A21-10H); assay: Stimulation of callus growth from a habituated line of Nicotiana tabacum; type: cell-based; set-up: key to Chlorophyll production: -: None; +: Slight; ++: Moderate; +++: Very Good; details: for Callus Growth Fresh weight: 0.02 ppm naphthalene acetic acid, untreated 0.6; for Chlorophyll production: untreated -
# Method: A specialized callus tissue (Nicotiana tabacum A21-10H) which was known to be unique in that it had been selected to no longer require cytokinins for callus to grow (this condition is known as "habituated") as long as 2 ppm naphthalene acetic acid was present in the medium, is transferred to flasks of basal media containing mineral salts based on the formulation of Murashige and Skoog, Physiologia plantarum 15: 473-497 (1962), and containing 100 mg per liter of i-inositol, 0.4 mg per liter of thiamine.HCl, and 3% sucrose (Huang, L. C. and T. Murashige 1976, TCA manual 3(1): 539-548) as well as 0.9% to 0.95% Difco® agar. The pH of the medium is adjusted to pH 5.8.
# Test solutions are added from 5000 ppm stock solutions in ethanol and the stimulation of callus growth determined by the increase in fresh weight per treatment (per flask) in grams and by chlorophyll production rated as indicated in the rating system below. (No shoot regeneration can occur in this line due to the length of time (>4 years) it has been maintained in culture.)
compound,measurement,setting,value
C/C(Cl)=C/CNC(=N)N[N+](=O)[O-],EC50,cucumber cotyledon,1 µg/mL
N=C(NCCC=C(Cl)Cl)N[N+](=O)[O-] [(Cl)2 CCHCH2 CH 2],EC50,cucumber cotyledon,11 µg/mL
C/C(=C\CNC(=N)N[N+](=O)[O-])CO,EC50,cucumber cotyledon,2.5 µg/mL
CCOCCNC(=N)N[N+](=O)[O-] [C2 H5 OCH2 CH2],EC50,cucumber cotyledon,113 µg/mL
"c1ccc(CNc2ncnc3nc[nH]c23)cc1 [N^6 benzyladenine, N^6 -benzyladenine]",optimum concentration of the standard,Soybean callus,10^-6 M
same,effect on callus growth at 10^-4 M,Soybean callus; 10^-4 M,supraoptimal effect whereby the beneficial effect was negated
same,Callus Dry Weight,Soybean callus; 10^-4 M,28 ± 5 mg per 3 pieces
same,Callus Fresh Weight,Soybean callus; 10^-4 M,434 ± 193 mg per 3 pieces
same,Callus Dry Weight,Soybean callus; 10^-6 M,351 ± 63 mg per 3 pieces
same,Callus Fresh Weight,Soybean callus; 10^-6 M,5826 ± 1110 mg per 3 pieces
same,Relative Chlorophyll,"cucumber cotyledons; Experiment A, 0.1 ppm, antagonist none, H2O alone 370",853
same,Relative Chlorophyll,"cucumber cotyledons; Experiment A, 0.1 ppm, with antagonist 10 ppm, H2O alone 370",460
N=C(NCCCC(N)C(=O)O)N[N+](=O)[O-] (centres unmarked),EC50,cucumber cotyledon,31 µg/mL
"Cc1n[nH]c2c(NCCC(C)C)ncnc12 [7-(Isopentylamine)-3-methyl-1H-Pyrazolo[4,3-d]pyrimidine]",Relative Chlorophyll,cucumber cotyledons,415 and 406
same,effect of antagonist on response of cucumber cotyledons to N^6-benzyladenine,cucumber cotyledons,prevents the response of cucumber cotyledons
same,prevention of enhancement of chlorophyll synthesis,cucumber cotyledons,able to fully prevent the enhancement of chlorophyll synthesis
same,"antagonist concentration decreasing the effect of 2iP, detectable","[1]; detectable, against 2iP",0.1 µM
same,"antagonist concentration decreasing the effect of 2iP, lethal","[1]; lethal, against 2iP",0.73 µM
CC(CO)CCNC(=N)N[N+](=O)[O-] (centres unmarked),EC50,cucumber cotyledon,14 µg/mL
N=C(NCCCCO)N[N+](=O)[O-] [HOCH2 CH2 CH2 CH2],EC50,cucumber cotyledon,113 µg/mL
CCC(C)(C)NC(=N)N[N+](=O)[O-] [C2 H5 C(CH3)2],EC50,cucumber cotyledon,22 µg/mL
CC(C)NC(=N)N[N+](=O)[O-] [(CH3)2 CH],ED50,cucumber cotyledon,45 ppm
C=CC(C)(C)NC(=N)N[N+](=O)[O-] [CH2CHC(CH3)2],ED50,cucumber cotyledon,157 ppm
CC(C)CCNC(=N)N[N+](=O)[O-] [(CH3)2 CHCH2 CH2],EC50,cucumber cotyledon,64 µg/mL
CCCCCNC(=N)N[N+](=O)[O-] [-n-C5 H11],EC50,cucumber cotyledon,31 µg/mL
C=CCNC(=N)N[N+](=O)[O-] [CH2CHCH2],ED50,cucumber cotyledon,22 ppm
CC(C)=CCNC(=N)N[N+](=O)[O-] [1-(3-methyl-2-butenyl)-3-nitroguanidine],Callus Growth Fresh weight,[2]; Molar concentration 10^-4,2.9 grams per flask
same,Chlorophyll production,[2]; Molar concentration 10^-4,++
same,EC50,cucumber cotyledon,3.8 µg/mL
same,effect on callus growth at 10^-4 M,Soybean callus; 10^-4 M,extremely active
same,Callus Dry Weight,Soybean callus; 10^-4 M,410 ± 87 mg per 3 pieces
same,Callus Fresh Weight,Soybean callus; 10^-4 M,5324 ± 1148 mg per 3 pieces
same,Relative Chlorophyll,"cucumber cotyledons; Experiment B, 20 ppm, antagonist none, H2O alone 443",1200
same,Relative Chlorophyll,"cucumber cotyledons; Experiment B, 20 ppm, with antagonist 10 ppm, H2O alone 443",388
c1coc(CNc2ncnc3[nH]cnc23)c1 [Kinetin],Callus Growth Fresh weight,[2]; Molar concentration 10^-4,1.4 grams per flask
same,Chlorophyll production,[2]; Molar concentration 10^-4,-
same,Callus Growth Fresh weight,[2]; Molar concentration 10^-5,0.8 grams per flask
same,Chlorophyll production,[2]; Molar concentration 10^-5,-
same,Callus Growth Fresh weight,[2]; Molar concentration 10^-6,0.3 grams per flask
same,Chlorophyll production,[2]; Molar concentration 10^-6,-
same,Callus Growth Fresh weight,[2]; Molar concentration 10^-7,0.2 grams per flask
same,Chlorophyll production,[2]; Molar concentration 10^-7,-
same,efficacy in the habituated callus system,[2]; reduced auxin level (0.02 ppm naphthalene acetic acid),ineffective
CCCCNC(=N)N[N+](=O)[O-] [-n-C4 H9],EC50,cucumber cotyledon,31 µg/mL
CC(C)(C)NC(=N)N[N+](=O)[O-] [(CH3)3 C],ED50,cucumber cotyledon,31 ppm
COCC(C)NC(=N)N[N+](=O)[O-] (centres unmarked) [CH3 OCH2 CH(CH3)],EC50,cucumber cotyledon,113 µg/mL
"CC(C)=CCNc1ncnc2nc[nH]c12 [2iP, 6-(3-methyl-2-butenylamino)purine]",concentration required for maximum growth of tobacco callus tissue cultures,[1],0.003 µM
